Test results from the NIST ThermoML archive (doi:10.1016/j.fluid.2018.05.008).
± gives the expanded uncertainty stated by the source.

Legend:
[1] = 100 kPa, Liquid, Vibrating tube method
[2] = xn = mol fraction of the nth substance listed; conditions: 100 kPa, Liquid, Vibrating tube method, x2 = 0.333

| Compound | mass density ([1]; 293.15 K) | mass density ([1]; 303.15 K) | mass density ([1]; 313.15 K) | mass density ([1]; 323.15 K) | mass density ([1]; 333.15 K) | mass density ([2]; 293.15 K) | mass density ([2]; 303.15 K) | mass density ([2]; 313.15 K) | mass density ([2]; 323.15 K) | mass density ([2]; 333.15 K) |
| --- | --- | --- | --- | --- | --- | --- | --- | --- | --- | --- |
| CCO [ethanol] | 790.6 ± 1 kg/m3 | 781.9 ± 1 kg/m3 | 773.3 ± 1 kg/m3 | 764.4 ± 1 kg/m3 | 755.1 ± 1 kg/m3 |  |  |  |  |  |
| NC(N)=O [urea] + C[N+](C)(C)CCO.[Cl-] |  |  |  |  |  | 1199.7 ± 1.1 kg/m3 | 1194.2 ± 1.1 kg/m3 | 1188.6 ± 1.1 kg/m3 | 1183.2 ± 1.1 kg/m3 | 1178 ± 1.1 kg/m3 |
